This note sets out measurements from patent publication EP3154958B1, “PHOSPHATIDYLINOSITOL 3-KINASE INHIBITORS” (Gilead Sciences, Inc., priority 2014, dated 2015).

Like-named read-outs stand apart in the source and are kept apart here. Where only a bound is given, the exact number is not on record here.

What all share (format): biochemical
In experiment [1] the target is T1, PI3Kγ (Homo sapiens, UniProt P48736).
T1 construct: made in house
The experiment can be described thus: TR-FRET enzymatic activity assay, PI3Kγ. As to the method: (§1) The compounds of formula (I) were characterized for their enzymatic activity against the PI3K isoforms. The activities were measured using a time-resolved fluorescence resonance energy transfer (TR-FRET) assay.

Experiment [2] concerns the target T2, PI3Kβ (Homo sapiens, UniProt P42338).
T2 construct: made in house
The experiment can be described thus: TR-FRET enzymatic activity assay, PI3Kβ. The procedure:
as §1

The target of experiment [3] is T3, PI3Kδ (Homo sapiens, UniProt O00329).
T3 construct: made in house
Kind of experiment: TR-FRET enzymatic activity assay, PI3Kδ. The procedure:
as §1

The mark [4] stands for this setting: recombinant heterodimeric PI3Kγ 2 nM, 2× Km ATP, 30 minutes at 25°C.
Setting [5] is: recombinant heterodimeric PI3Kβ 25-50 pM, 2× Km ATP, 30 minutes at 25°C.
[6] abbreviates: recombinant heterodimeric PI3Kδ 25-50 pM, 2× Km ATP, 30 minutes at 25°C.

T2 sequence (P42338 whole entry): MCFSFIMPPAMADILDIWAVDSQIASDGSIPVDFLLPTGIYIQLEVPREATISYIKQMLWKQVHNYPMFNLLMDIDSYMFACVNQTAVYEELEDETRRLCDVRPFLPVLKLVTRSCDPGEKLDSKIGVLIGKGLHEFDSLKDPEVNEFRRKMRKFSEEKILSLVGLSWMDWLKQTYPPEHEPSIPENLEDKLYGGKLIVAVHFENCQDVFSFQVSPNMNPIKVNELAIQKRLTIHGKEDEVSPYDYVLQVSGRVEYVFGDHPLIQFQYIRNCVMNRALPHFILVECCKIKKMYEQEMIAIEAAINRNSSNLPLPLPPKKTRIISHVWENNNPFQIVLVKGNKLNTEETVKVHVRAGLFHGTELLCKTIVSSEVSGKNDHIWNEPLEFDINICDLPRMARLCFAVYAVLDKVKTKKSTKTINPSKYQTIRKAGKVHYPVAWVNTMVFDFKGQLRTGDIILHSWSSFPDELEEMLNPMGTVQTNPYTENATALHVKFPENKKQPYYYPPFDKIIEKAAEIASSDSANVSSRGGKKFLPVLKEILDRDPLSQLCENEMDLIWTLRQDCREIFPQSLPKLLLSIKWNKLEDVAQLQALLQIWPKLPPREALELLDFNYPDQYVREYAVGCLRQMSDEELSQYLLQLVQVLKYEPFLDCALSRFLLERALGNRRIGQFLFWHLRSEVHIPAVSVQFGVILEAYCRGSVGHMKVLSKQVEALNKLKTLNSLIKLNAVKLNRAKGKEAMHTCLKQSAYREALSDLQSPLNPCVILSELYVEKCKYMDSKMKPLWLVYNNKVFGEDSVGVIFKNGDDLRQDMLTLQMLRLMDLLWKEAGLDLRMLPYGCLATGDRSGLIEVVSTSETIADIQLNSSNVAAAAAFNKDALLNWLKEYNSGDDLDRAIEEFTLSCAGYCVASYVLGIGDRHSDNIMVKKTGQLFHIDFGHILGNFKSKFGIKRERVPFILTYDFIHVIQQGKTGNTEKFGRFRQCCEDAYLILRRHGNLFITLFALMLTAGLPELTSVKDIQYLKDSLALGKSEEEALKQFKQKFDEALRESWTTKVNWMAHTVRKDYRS
T2 sequence (P27986 whole entry partner): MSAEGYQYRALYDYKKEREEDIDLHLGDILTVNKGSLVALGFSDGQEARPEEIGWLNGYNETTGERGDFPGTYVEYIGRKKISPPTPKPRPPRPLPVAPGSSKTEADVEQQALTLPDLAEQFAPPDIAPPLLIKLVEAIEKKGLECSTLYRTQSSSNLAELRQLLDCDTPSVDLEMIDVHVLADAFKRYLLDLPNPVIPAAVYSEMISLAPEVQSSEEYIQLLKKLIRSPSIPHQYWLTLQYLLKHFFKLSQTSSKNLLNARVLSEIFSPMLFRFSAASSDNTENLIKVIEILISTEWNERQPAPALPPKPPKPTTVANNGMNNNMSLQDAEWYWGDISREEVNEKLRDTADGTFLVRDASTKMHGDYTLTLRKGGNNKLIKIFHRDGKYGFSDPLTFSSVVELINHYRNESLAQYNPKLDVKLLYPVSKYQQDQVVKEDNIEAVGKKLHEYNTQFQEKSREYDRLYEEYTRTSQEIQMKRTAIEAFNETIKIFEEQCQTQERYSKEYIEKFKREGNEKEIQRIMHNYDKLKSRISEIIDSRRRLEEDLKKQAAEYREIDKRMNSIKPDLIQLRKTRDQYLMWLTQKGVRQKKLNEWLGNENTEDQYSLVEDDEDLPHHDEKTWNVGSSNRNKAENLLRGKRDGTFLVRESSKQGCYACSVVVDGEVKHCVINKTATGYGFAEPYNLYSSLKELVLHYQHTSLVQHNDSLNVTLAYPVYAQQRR
T3 sequence (O00329 whole entry): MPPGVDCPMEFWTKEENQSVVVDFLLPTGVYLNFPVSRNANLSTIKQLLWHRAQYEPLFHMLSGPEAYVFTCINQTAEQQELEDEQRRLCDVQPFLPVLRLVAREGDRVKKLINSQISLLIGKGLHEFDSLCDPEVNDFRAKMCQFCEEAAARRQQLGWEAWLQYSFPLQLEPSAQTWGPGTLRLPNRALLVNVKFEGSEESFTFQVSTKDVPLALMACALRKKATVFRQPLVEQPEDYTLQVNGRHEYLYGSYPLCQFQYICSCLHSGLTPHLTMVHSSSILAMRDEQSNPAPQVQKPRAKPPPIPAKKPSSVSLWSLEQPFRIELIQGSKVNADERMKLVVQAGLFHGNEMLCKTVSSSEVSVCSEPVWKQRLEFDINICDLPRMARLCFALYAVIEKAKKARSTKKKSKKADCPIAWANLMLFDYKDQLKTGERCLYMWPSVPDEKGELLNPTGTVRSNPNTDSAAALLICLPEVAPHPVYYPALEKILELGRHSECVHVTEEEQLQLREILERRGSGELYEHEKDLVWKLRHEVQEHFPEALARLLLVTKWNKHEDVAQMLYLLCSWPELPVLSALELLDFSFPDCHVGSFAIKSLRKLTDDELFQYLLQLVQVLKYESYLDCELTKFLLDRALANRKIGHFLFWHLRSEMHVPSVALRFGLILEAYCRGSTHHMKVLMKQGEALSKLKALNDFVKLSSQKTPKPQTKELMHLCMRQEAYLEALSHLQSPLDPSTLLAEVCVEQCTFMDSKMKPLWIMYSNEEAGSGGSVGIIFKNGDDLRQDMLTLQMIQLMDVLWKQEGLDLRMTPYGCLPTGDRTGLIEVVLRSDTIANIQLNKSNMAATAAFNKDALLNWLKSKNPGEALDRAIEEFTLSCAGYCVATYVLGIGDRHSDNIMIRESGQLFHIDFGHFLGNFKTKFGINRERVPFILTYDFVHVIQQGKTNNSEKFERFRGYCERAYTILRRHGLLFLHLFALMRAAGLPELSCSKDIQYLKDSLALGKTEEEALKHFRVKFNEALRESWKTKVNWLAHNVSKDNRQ
T3 sequence (P27986 whole entry partner): as the sequence (P27986 whole entry partner) above
T1 sequence (P48736 whole entry): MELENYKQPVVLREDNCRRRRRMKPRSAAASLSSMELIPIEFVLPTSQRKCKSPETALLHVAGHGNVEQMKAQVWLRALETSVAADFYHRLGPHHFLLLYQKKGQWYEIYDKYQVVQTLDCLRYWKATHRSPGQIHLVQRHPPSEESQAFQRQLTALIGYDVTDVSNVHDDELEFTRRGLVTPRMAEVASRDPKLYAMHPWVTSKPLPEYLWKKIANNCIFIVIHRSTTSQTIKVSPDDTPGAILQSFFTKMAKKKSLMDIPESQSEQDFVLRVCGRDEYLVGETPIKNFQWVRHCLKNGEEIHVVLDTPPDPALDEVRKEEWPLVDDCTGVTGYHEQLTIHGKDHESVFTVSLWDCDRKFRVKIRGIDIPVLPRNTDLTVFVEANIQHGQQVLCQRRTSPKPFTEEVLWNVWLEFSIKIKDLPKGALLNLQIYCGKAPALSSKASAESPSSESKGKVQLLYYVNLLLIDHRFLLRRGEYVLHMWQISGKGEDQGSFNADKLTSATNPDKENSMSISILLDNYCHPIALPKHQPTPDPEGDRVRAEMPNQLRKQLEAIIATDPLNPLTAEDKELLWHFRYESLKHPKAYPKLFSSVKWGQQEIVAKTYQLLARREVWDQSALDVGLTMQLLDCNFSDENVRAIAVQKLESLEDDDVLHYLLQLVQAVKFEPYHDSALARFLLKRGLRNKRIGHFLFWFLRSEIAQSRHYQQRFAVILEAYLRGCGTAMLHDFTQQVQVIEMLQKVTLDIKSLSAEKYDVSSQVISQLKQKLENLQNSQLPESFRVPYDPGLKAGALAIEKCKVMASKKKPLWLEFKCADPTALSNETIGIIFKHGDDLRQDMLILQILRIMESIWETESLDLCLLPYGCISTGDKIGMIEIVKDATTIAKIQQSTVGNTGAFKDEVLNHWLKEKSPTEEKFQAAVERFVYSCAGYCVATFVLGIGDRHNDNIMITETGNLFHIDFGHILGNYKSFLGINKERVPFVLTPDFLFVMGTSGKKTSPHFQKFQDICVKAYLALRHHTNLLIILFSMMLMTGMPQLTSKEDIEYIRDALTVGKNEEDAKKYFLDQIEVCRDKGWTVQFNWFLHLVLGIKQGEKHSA
T1 sequence (Q8WYR1 whole entry partner): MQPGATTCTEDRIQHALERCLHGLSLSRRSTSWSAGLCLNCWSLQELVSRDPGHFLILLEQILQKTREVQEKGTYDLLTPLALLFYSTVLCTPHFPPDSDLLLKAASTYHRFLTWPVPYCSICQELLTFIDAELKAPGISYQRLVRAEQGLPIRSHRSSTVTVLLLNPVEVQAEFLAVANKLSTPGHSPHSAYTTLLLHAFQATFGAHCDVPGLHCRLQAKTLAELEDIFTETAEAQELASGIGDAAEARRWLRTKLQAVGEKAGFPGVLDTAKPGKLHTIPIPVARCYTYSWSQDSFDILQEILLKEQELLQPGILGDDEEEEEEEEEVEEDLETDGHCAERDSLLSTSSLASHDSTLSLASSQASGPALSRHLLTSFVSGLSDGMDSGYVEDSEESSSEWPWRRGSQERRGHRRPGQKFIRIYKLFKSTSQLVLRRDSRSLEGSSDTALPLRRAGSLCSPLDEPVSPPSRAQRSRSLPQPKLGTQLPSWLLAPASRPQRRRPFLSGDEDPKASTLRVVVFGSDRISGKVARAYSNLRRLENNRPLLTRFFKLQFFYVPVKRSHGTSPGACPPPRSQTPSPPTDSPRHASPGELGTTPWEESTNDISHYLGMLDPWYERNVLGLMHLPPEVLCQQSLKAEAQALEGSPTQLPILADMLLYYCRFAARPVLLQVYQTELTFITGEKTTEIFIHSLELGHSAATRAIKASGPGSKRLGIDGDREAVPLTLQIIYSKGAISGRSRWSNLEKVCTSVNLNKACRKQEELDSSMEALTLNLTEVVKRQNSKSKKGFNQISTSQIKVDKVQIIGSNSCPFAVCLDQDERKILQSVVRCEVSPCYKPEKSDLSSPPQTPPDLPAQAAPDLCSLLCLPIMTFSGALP

In general, IC50 refers to the concentration at which inhibition is half-maximal. Take `Cc1nc(N)nc(N[C@H](c2nc3cccc(Cl)c3c(=O)n2C2[C@H]3CNC[C@@H]23)C2CC2)c1C#N` (stereo in doubt) [Compound 14, 4-(((1S)-(3-((1R,5S)-3-azabicyclo[3.1.0]hexan-6-yl)-5-chloro-4-oxo-3,4-dihydroquinazolin-2-yl)(cyclopropyl)methyl)amino)-2-amino-6-methylpyrimidine-5-carbonitrile]: the IC50 in experiment [1] worked out at 480 nM; in experiment [2] it was 0.4 nM; in experiment [3] it was 0.3 nM.

Consider `N#Cc1c(N)nc(N)nc1N[C@H](c1nc2cccc(Cl)c2c(=O)n1C1[C@H]2CNC[C@@H]12)C1CC1` (stereo in doubt) [Compound 15, 4-(((1S)-(3-((1R,5S)-3-azabicyclo[3.1.0]hexan-6-yl)-5-chloro-4-oxo-3,4-dihydroquinazolin-2-yl)(cyclopropyl)methyl)amino)-2,6-diaminopyrimidine-5-carbonitrile], for which the IC50 is 650 nM in experiment [1], 2 nM in experiment [2] and 0.6 nM in experiment [3].

With `Cc1nc(N)nc(N[C@@H](C)c2nc3c(F)ccc(Cl)c3c(=O)n2C2[C@H]3CNC[C@@H]23)c1C#N` (stereo in doubt) [Compound 16, 4-(((1S)-1-(3-((1R,5S)-3-azabicyclo[3.1.0]hexan-6-yl)-5-chloro-8-fluoro-4-oxo-3,4-dihydroquinazolin-2-yl)ethyl)amino)-2-amino-6-methylpyrimidine-5-carbonitrile], the IC50 in experiment [1] (setting [4]) is 2600 nM; in experiment [2] (setting [5]) it was 2 nM; in experiment [3] (setting [6]), 6 nM.

As to `C[C@H](Nc1nc(N)nc(N)c1C#N)c1nc2c(F)ccc(Cl)c2c(=O)n1C1[C@H]2CNC[C@@H]12` (stereo in doubt) [Compound 17, 4-(((1S)-1-(3-((1R,5S)-3-azabicyclo[3.1.0]hexan-6-yl)-5-chloro-8-fluoro-4-oxo-3,4-dihydroquinazolin-2-yl)ethyl)amino)-2,6-diaminopyrimidine-5-carbonitrile], the IC50 is 2800 nM in experiment [1] (setting [4]), 3 nM in experiment [2] (setting [5]) and 4 nM in experiment [3] (setting [6]).

With `C[C@H](Nc1nc(N)nc(N)c1C#N)c1nc2cccc(Cl)c2c(=O)n1C1[C@H]2CNC[C@@H]12` (stereo in doubt) [Compound 19, 4-(((1S)-1-(3-((1R,5S)-3-azabicyclo[3.1.0]hexan-6-yl)-5-chloro-4-oxo-3,4-dihydroquinazolin-2-yl)ethyl)amino)-2,6-diaminopyrimidine-5-carbonitrile], the IC50 in experiment [1] was 1200 nM; in experiment [2] it was 3 nM; in experiment [3], 1 nM.

In the case of `C[C@H](Nc1nc(N)nc(N)c1C#N)c1nc2cccc(Cl)c2c(=O)n1[C@@H]1CCCNC1` (stereo in doubt) [Compound 27, 2,4-diamino-6-(((S)-1-(5-chloro-4-oxo-3-((R)-piperidin-3-yl)-3,4-dihydroquinazolin-2-yl)ethyl)amino)pyrimidine-5-carbonitrile], the values for the half-maximal inhibitory concentration (IC50) in experiment [1] (setting [4]), in experiment [2] (setting [5]) and in experiment [3] (setting [6]) were greater than 10000 nM, 5600 nM and 830 nM, respectively.

With `N#Cc1c(N)nc(N)nc1N1CCC[C@@H]1c1nc2cccc(F)c2c(=O)n1N1CCN(Cc2ccccc2)CC1` (stereo in doubt) [Compound 124, (R)-2,4-diamino-6-(2-(3-(4-benzylpiperazin-1-yl)-5-fluoro-4-oxo-3,4-dihydroquinazolin-2-yl)pyrrolidin-1-yl)pyrimidine-5-carbonitrile], the concentration for half-maximal inhibition (IC50) was greater than 10000 nM in experiment [1] (setting [4]), 1300 nM in experiment [2] (setting [5]) and 390 nM in experiment [3] (setting [6]).

For `CN1CCN(n2c([C@@H](Nc3nc(N)nc(N)c3C#N)C3CC3)nc3cccc(Cl)c3c2=O)CC1` [Compound 1, (S)-2,4-diamino-6-(((5-chloro-3-(4-methylpiperazin-1-yl)-4-oxo-3,4-dihydroquinazolin-2-yl)(cyclopropyl)methyl)amino)pyrimidine-5-carbonitrile], the IC50 in experiment [1] (setting [4]) stood at 1740 nM; in experiment [2] (setting [5]), 30 nM; in experiment [3] (setting [6]) it was 21 nM.

For the compound `CN1CCN(n2c([C@@H](Nc3nc(N)nc(N)c3Cl)C3CC3)nc3cccc(Cl)c3c2=O)CC1` [Compound 2, (S)-5-chloro-2-(cyclopropyl((2,6-diamino-5-chloropyrimidin-4-yl)amino)methyl)-3-(4-methylpiperazin-1-yl)quinazolin-4(3H)-one], the IC50 in experiment [1] (setting [4]) is greater than 10000 nM; in experiment [2] (setting [5]), 950 nM; in experiment [3] (setting [6]), 260 nM.

In the case of `C[C@H](Nc1nc(N)nc(N)c1C#N)c1nc2cccc(Cl)c2c(=O)n1N1CCN(Cc2ccccc2)CC1` [Compound 3, (S)-2,4-diamino-6-((1-(3-(4-benzylpiperazin-1-yl)-5-chloro-4-oxo-3,4-dihydroquinazolin-2-yl)ethyl)amino)pyrimidine-5-carbonitrile], the IC50 in experiment [1] (setting [4]) stood at 580 nM; in experiment [2] (setting [5]) it was 8 nM; in experiment [3] (setting [6]), 12 nM.

As for `C[C@H](Nc1nc(N)nc(N)c1C#N)c1nc2cccc(Cl)c2c(=O)n1C1C[C@H]2CC[C@@H](C1)N2C` (stereo partly drawn) [Compound 4, 2,4-diamino-6-(((1S)-1-(5-chloro-3-((1R,5S)-8-methyl-8-azabicyclo[3.2.1]octan-3-yl)-4-oxo-3,4-dihydroquinazolin-2-yl)ethyl)amino)pyrimidine-5-carbonitrile], the figures for the concentration for half-maximal inhibition (IC50) in experiment [1] (setting [4]), in experiment [2] (setting [5]) and in experiment [3] (setting [6]) were greater than 10000 nM, 290 nM and 82 nM, respectively.

Take `C[C@H](Nc1ncnc(N)c1C#N)c1nc2cccc(Cl)c2c(=O)n1N1CCN(C)CC1` [Compound 5, (S)-4-amino-6-((1-(5-chloro-3-(4-methylpiperazin-1-yl)-4-oxo-3,4-dihydroquinazolin-2-yl)ethyl)amino)pyrimidine-5-carbonitrile]: the IC50 was greater than 10000 nM in experiment [1] (setting [4]), 190 nM in experiment [2] (setting [5]) and 19 nM in experiment [3] (setting [6]).

On to `C[C@H](Nc1ncnc(N)c1C#N)c1nc2cccc(Cl)c2c(=O)n1C1CCN(C)CC1` [Compound 6, (S)-4-amino-6-((1-(5-chloro-3-(1-methylpiperidin-4-yl)-4-oxo-3,4-dihydroquinazolin-2-yl)ethyl)amino)pyrimidine-5-carbonitrile], for which the IC50 is greater than 10000 nM in experiment [1] (setting [4]), 460 nM in experiment [2] (setting [5]) and 68 nM in experiment [3] (setting [6]).

As to `C[C@H](Nc1nc(N)nc(N)c1C#N)c1nc2cccc(Cl)c2c(=O)n1N1CCNC2(CC2)C1` [Compound 7, (S)-2,4-diamino-6-((1-(5-chloro-4-oxo-3-(4,7-diazaspiro[2.5]octan-7-yl)-3,4-dihydroquinazolin-2-yl)ethyl)amino)pyrimidine-5-carbonitrile], the IC50 in experiment [1] (setting [4]) came out at 860 nM; in experiment [2] (setting [5]) it was 2 nM; in experiment [3] (setting [6]) it was 0.8 nM.

With `C[C@H](Nc1nc(N)nc(N)c1C#N)c1nc2cccc(Cl)c2c(=O)n1[C@H]1CCCNCC1` [Compound 8, 2,4-diamino-6-(((S)-1-(3-((S)-azepan-4-yl)-5-chloro-4-oxo-3,4-dihydroquinazolin-2-yl)ethyl)amino)pyrimidine-5-carbonitrile], the values for the IC50 in experiment [1] (setting [4]), in experiment [2] (setting [5]) and in experiment [3] (setting [6]) were greater than 10000 nM, 62 nM and 2 nM, respectively.

As for `C[C@H](Nc1nc(N)nc(N)c1C#N)c1nc2cccc(Cl)c2c(=O)n1[C@@H]1CCCNCC1` [Compound 9, 2,4-diamino-6-(((S)-1-(3-((R)-azepan-4-yl)-5-chloro-4-oxo-3,4-dihydroquinazolin-2-yl)ethyl)amino)pyrimidine-5-carbonitrile], the 50% inhibitory concentration (IC50) is greater than 10000 nM in experiment [1] (setting [4]), 9 nM in experiment [2] (setting [5]) and 2 nM in experiment [3] (setting [6]).

Regarding `Cc1nc(N)nc(N[C@@H](C)c2nc3cccc(Cl)c3c(=O)n2[C@H]2CCCNCC2)c1C#N` [Compound 10, 2-amino-4-(((S)-1-(3-((S)-azepan-4-yl)-5-chloro-4-oxo-3,4-dihydroquinazolin-2-yl)ethyl)amino)-6-methylpyrimidine-5-carbonitrile], the IC50 in experiment [1] (setting [4]) is greater than 10000 nM.

As to `Cc1nc(N)nc(N[C@@H](C)c2nc3cccc(Cl)c3c(=O)n2[C@@H]2CCCNCC2)c1C#N` [Compound 11, 2-amino-4-(((S)-1-(3-((R)-azepan-4-yl)-5-chloro-4-oxo-3,4-dihydroquinazolin-2-yl)ethyl)amino)-6-methylpyrimidine-5-carbonitrile], in experiment [1] (setting [4]), the IC50 was greater than 10000 nM.

Turning to `C[C@H](Nc1nc(N)nc(N)c1Cl)c1nc2cccc(Cl)c2c(=O)n1[C@H]1CCCNCC1` [Compound 12, 3-((S)-azepan-4-yl)-5-chloro-2-((S)-1-((2,6-diamino-5-chloropyrimidin-4-yl)amino)ethyl)quinazolin-4(3H)-one], the figures for the half-maximal inhibitory concentration (IC50) in experiment [1] (setting [4]), in experiment [2] (setting [5]) and in experiment [3] (setting [6]) were greater than 10000 nM, 660 nM and 56 nM, respectively.

`C[C@H](Nc1nc(N)nc(N)c1C#N)c1nc2c(Cl)ccc(Cl)c2c(=O)n1N1CCNCC1` [Compound 53, (S)-2,4-diamino-6-((1-(5,8-dichloro-4-oxo-3-(piperazin-1-yl)-3,4-dihydroquinazolin-2-yl)ethyl)amino)pyrimidine-5-carbonitrile]: the IC50 in experiment [2] came to 27 nM; in experiment [2] (setting [5]) it was 4 nM; in experiment [3], 6 nM; in experiment [3] (setting [6]), 3 nM.

In the case of `C[C@H](NC(=O)c1nccnc1N)c1nc2cccc(Cl)c2c(=O)n1N1CCNCC1` [Compound 56, (S)-3-amino-N-(1-(5-chloro-4-oxo-3-(piperazin-1-yl)-3,4-dihydroquinazolin-2-yl)ethyl)pyrazine-2-carboxamide], the IC50 in experiment [2] (setting [5]) was determined as 21 nM; in experiment [3] (setting [6]), 230 nM.

For `C[C@H](Nc1nc(N)nc(N)c1C#N)c1nc2cccc(Cl)c2c(=O)n1N1CCNCC1` [Compound 57, (S)-2,4-diamino-6-((1-(5-chloro-4-oxo-3-(piperazin-1-yl)-3,4-dihydroquinazolin-2-yl)ethyl)amino)pyrimidine-5-carbonitrile], the IC50 in experiment [1] (setting [4]) came out at 710 nM.
